Results from US20210251228A1, “METHODS FOR REPELLING DROSOPHILA SPECIES USING 2-PENTYLFURAN” (The United States of America, as represented by the …, priority 2020, published 2021).

What was measured:
[1] = system: Drosophila suzukii; assay: Multiple-choice bioassay: EAD-active compound added to 4-component SWD lure in gated cup traps; assay type: in vivo
Method: Multiple-Choice Bioassay: The multiple choice assay (N=8) was conducted with an arena design using a dome cage (60 cm W×60 cm L×60 cm H; BugDorm-2120 Insect tent; shop.bugdorm.com) as described in Cha et al. 2018b (Cha, D. H., et al., Environ. Entomol., 47: 946-950 (2018b)) to evaluate the effect of the individual EAD-active compounds (FIG. 1) on SWD attraction to previously identified 4-component SWD lure (Cha et al. 2012; Cha, D. H., et al., Pest Manag. Sci., 70: 324-331 (2014); Cha, D. H., et al., Environ. Entomol., 46: 907-915 (2017)). Among 18 EAD-active compounds in FIG. 1, acetoin, 1-hexanol, isoamyl acetate, 2-methylbutyl acetate, and 2-phenylethanol were previously tested for their behavioral effects (Cha et al. 2012, 2014) and not considered in this study. Therefore, we compared 13 EAD-active compounds in this study. Within each arena, 14 traps were positioned in a circle (40 cm diameter) at equal distance with each trap 9 cm apart along the circumference. We used an aluminum foil-covered 100-ml glass beaker with a cut centrifuge vial (0.7 cm diameter) inserted in the foil for SWD entry, as a trap (Cha et al. 2012). All 14 traps had the SWD lure comprised of acetic acid, ethanol, acetoin, and methionol. Acetic acid and ethanol were released from a 20 ml solution of 4% acetic acid+8% ethanol with soap, presented as a drowning solution in each trap. Acetoin (1 ml of 50% acetoin in water) and methionol (0.5 ml neat methionol) were individually released from two 1.5-ml vials with 3-mm hole on the lid with a piece of cotton as described in Cha et al. 2014. One of these 14 traps served as a control (with the 4-component SWD lure only) and the remaining 13 traps had one of the 13 EAD-active compounds added to the SWD-lure, loaded as described in Cha et al. 2012 and released from a 1.5-ml vial with 3-mm hole with a piece of cotton. […] The number of flies inside treatment and control traps was counted after 20 h.
Statistical Analyses: Trap catch data from multiple-choice assay and two-choice assay were analyzed in a randomized block design with block as a random factor and different EAD-active compounds as a fixed factor using Poisson distribution with log link function and maximum likelihood estimation (Proc Glimmix, SAS Institute, SAS/STAT 9.2 User's Guide, Second Edition, 2009, SAS Institute Inc., Cary, N.C.). Oviposition data from (1) laboratory dose-response test, (2) semi-field cage choice test, and (3) first and second field experiments were also analyzed in a randomized block design with block as a random factor and different 2-pentylfuran treatments as a fixed factor using Poisson distribution with log link function and maximum likelihood estimation. […]

[2] = system: Drosophila suzukii; assay: No-choice oviposition cage experiment: release rate of 2-pentylfuran on raspberry; assay type: in vivo; settings: 2 h
Method: Effects of Release Rate of 2-pentylfuran on SWD Oviposition on Raspberry: No Choice Test. Based on the significant effect of 2-pentylfuran using an unknown release rate in the field, to better understand concentration response of SWD to 2-pentylfuran, we evaluated the response of adult SWD to different ranges of 2-pentylfuran release rates in 2 h no choice oviposition cage experiments conducted in the greenhouse (25° C.; natural light; 40-60% r.h.). Cages (60 cm W×60 cm H×180 cm L, BioQuip, Rancho Dominguez, Calif.) were shrouded with a piece of shade cloth (120 cm W×120 cm H×300 cm L). […] Actual release rates from each dispenser used were measured for each assay by recording weight of the dispensers prior and post assay. […] Upon completion of the assay, total number of SWD eggs oviposited into the raspberries was determined with the aid of a dissecting microscope.
Statistical Analyses: Trap catch data from multiple-choice assay and two-choice assay were analyzed in a randomized block design with block as a random factor and different EAD-active compounds as a fixed factor using Poisson distribution with log link function and maximum likelihood estimation (Proc Glimmix, SAS Institute, SAS/STAT 9.2 User's Guide, Second Edition, 2009, SAS Institute Inc., Cary, N.C.). […]

CCCCCc1ccco1 [2-pentylfuran]
reduction of trap catches of SWD ([1]; SWD lure + 2-pentylfuran vs SWD lure only (62 SWD/trap)): 98%
negative effect on SWD attraction to the SWD lure compared with 1-octen-3-ol ([1]; multiple-choice, 20 h, N=8): significantly stronger than 1-octen-3-ol
effect on SWD attraction to (catch in traps baited with) the 4-component SWD lure ([1]; one compound added to SWD lure, 14 traps per arena, flies counted after 20 h, N=8): greatest reduction
trap catch of SWD ([1]; trap with SWD lure + 2-pentylfuran, 20 h): 1 SWD/trap
release rate at which SWD oviposition began to decline relative to control ([2]; greenhouse cages, raspberries, N=12): around 2.5 mg/h
reduction in number of eggs laid compared to control ([2]; high release rate (5 and 10 mg/h)): 58%
